For experiment [1], the system named is spinal cord of apoaequorin-expressing mice. Nature of the experiment: Intracellular calcium ion increase (aequorin luminescence), spinal cord. The following applies: peptide at final concentrations of 1 μmol/L and 5 μmol/L. In kind it is cell-based, mouse. How it is done:
(§1) A hypothalamus, pituitary gland, kidney, heart, blood vessel, or a portion of brain tissue is collected from transgenic mice systemically expressing apoaequorin (WO02/010371) produced by introducing an apoaequorin gene expression vector into fertilized eggs. The obtained hypothalamus, pituitary gland, kidney, heart, blood vessel, or brain tissue is cut finely into pieces, suspended in a medium containing coelenterazine, and then incubated to incorporate coelenterazine into the cells to form aequorin (a complex of apoaequorin and coelenterazine). Since aequorin luminesces upon binding to intracellular calcium ions, the relative luminescence level in cells before and after addition of a medium containing the peptide or a pharmaceutically acceptable salt thereof is measured in a luminometer every second over time and is used as an indicator of intracellular calcium ion concentration. Increase in the relative luminescence level due to addition of the peptide or pharmaceutically acceptable salt thereof confirms that the peptide or pharmaceutically acceptable salt thereof has the activity to increase intracellular calcium ion concentration. […]

In experiment [2] the test system is kidney cells of the apoaequorin-expressing mice. Briefly: Intracellular calcium ion increase (aequorin luminescence), kidney. In kind it is cell-based, mouse. The following applies: for increase of intracellular calcium concentration in kidney cells (RLU per second): 1 μmol/L peptide, added at 25 seconds; for luminescence (intracellular calcium ion increase) in kidney: peptide at final concentrations of 1 μmol/L and 5 μmol/L. How it is done: (§2) A hypothalamus, pituitary gland, kidney, heart, blood vessel, or a portion of brain tissue is collected from transgenic mice systemically expressing apoaequorin (WO02/010371) produced by introducing an apoaequorin gene expression vector into fertilized eggs. The obtained hypothalamus, pituitary gland, kidney, heart, blood vessel, or brain tissue is cut finely into pieces, suspended in a medium containing coelenterazine, and then incubated to incorporate coelenterazine into the cells to form aequorin (a complex of apoaequorin and coelenterazine). Since aequorin luminesces upon binding to intracellular calcium ions, the relative luminescence level in cells before and after addition of a medium containing the peptide or a pharmaceutically acceptable salt thereof is measured in a luminometer every second over time and is used as an indicator of intracellular calcium ion concentration. Increase in the relative luminescence level due to addition of the peptide or pharmaceutically acceptable salt thereof confirms that the peptide or pharmaceutically acceptable salt thereof has the activity to increase intracellular calcium ion concentration.
(§3) Whether Peptides 1 to 8 synthesized in Example 2 have the activity of increasing intracellular calcium ion concentration was investigated using the organs of transgenic mice introduced with the apoaequorin gene and systemically expressing apoaequorin (hereinafter referred to as apoaequorin-expressing mice). In apoaequorin-expressing mouse cells, light is emitted when apoaequorin binds to a calcium ion in the presence of the luminescent substrate coelenterazine and thus the intracellular calcium ion concentration can be monitored. Patent Document (WO02/010371) discloses the method for producing apoaequorin-expressing mice, method for evaluating biologically active substances that use biological samples derived from the mice, and experimental results of evaluating biologically active peptides using the mouse organs as shown below. […] Therefore, apoaequorin-expressing mice can be used in the evaluation of the physiological activities of novel peptides.
(§4) Apoaequorin-expressing mice were produced according to the method disclosed in Reference Example 4 of Patent Document (WO02/010371). The apoaequorin-expressing mice were sacrificed, individual organs including thymus, hypothalamus, spleen, bone, aorta, heart, kidney, adrenal gland, pancreas, pituitary gland, uterus, medulla oblongata, and spinal cord were removed; and each of the organs was cut into small cubes of approximately 1 to 2 mm^3. Next, in 5-mL tubes (Rohren-Tubes; manufactured by Sarstedt, No. 55.476), three portions of each of the prepared organs were added to 50 μL of a 10 μmol/L solution of coelenterazine (manufactured by Molecular Probes) dissolved in RPMI 1640 medium, and these were cultured at 37° C. for three hours. After culturing, RPMI 1640 medium was added, and then Peptides 1 to 5 dissolved in RPMI 1640 medium were added 25 seconds after the addition of RPMI 1640 until each peptide had final concentrations of 1 μmol/L and of 5 μmol/L, and the relative luminescence levels were measured every second immediately after the addition of RPMI 1640 medium by using a luminometer (AutoLumat LB953, manufactured by Berthold).
Background: Calcium assays in cells follow changes in intracellular calcium, usually with a dye or a luminescent sensor.

The subject of experiment [3] is hypothalamic cells of the apoaequorin-expressing mice. Briefly: Intracellular calcium ion increase (aequorin luminescence), hypothalamus. In kind it is cell-based, mouse. The following applies: for increase of intracellular calcium concentration in hypothalamic cells (RLU per second): 5 μmol/L peptide, added at 25 seconds; for luminescence (intracellular calcium ion increase) in hypothalamus: peptide at final concentrations of 1 μmol/L and 5 μmol/L. How it is done:
as §2, §3, §4

In experiment [4] the test system is uterus of apoaequorin-expressing mice. Nature of the experiment: Intracellular calcium ion increase (aequorin luminescence), uterus. Type of experiment: cell-based, mouse. The note with it: peptide at final concentrations of 1 μmol/L and 5 μmol/L. As for the experimental part: as §1
The subject of experiment [5] is cardiac cells of the apoaequorin-expressing mice. Nature of the experiment: Intracellular calcium ion increase (aequorin luminescence), heart. In kind it is cell-based, mouse. The following applies: for increase of intracellular calcium concentration in cardiac cells (RLU per second): 5 μmol/L peptide, added at 25 seconds; for luminescence (intracellular calcium ion increase) in heart: peptide at final concentrations of 1 μmol/L and 5 μmol/L. As for the experimental part: as §2, §3, §4

In experiment [6] the test system is spleen of apoaequorin-expressing mice. Nature of the experiment: Intracellular calcium ion increase (aequorin luminescence), spleen. In kind it is cell-based, mouse. The following applies: peptide at final concentrations of 1 μmol/L and 5 μmol/L. How it is done:
as §2, §3
(§5) Apoaequorin-expressing mice were produced according to the method disclosed in Reference Example 4 of Patent Document (WO02/010371). […] After culturing, RPMI 1640 medium was added, and then Peptides 1 to 5 dissolved in RPMI 1640 medium were added 25 seconds after the addition of RPMI 1640 until each peptide had final concentrations of 1 μmol/L and of 5 μmol/L, and the relative luminescence levels were measured every second immediately after the addition of RPMI 1640 medium by using a luminometer (AutoLumat LB953, manufactured by Berthold).

In experiment [7] the test system is medulla oblongata of apoaequorin-expressing mice. Nature of the experiment: Intracellular calcium ion increase (aequorin luminescence), medulla oblongata. Type of experiment: cell-based, mouse. The note with it: peptide at final concentrations of 1 μmol/L and 5 μmol/L. How it is done:
as §2, §3, §4

In experiment [8] the test system is pituitary cells of the apoaequorin-expressing mice. Briefly: Intracellular calcium ion increase (aequorin luminescence), pituitary gland. In kind it is cell-based, mouse. The note with it: for increase of intracellular calcium concentration in pituitary cells (RLU per second): added at 25 seconds; for luminescence (intracellular calcium ion increase) in pituitary gland: peptide at final concentrations of 1 μmol/L and 5 μmol/L. As for the experimental part: as §2, §3, §4

The test system of experiment [9] is thymus of apoaequorin-expressing mice. Nature of the experiment: Intracellular calcium ion increase (aequorin luminescence), thymus. The note with it: peptide at final concentrations of 1 μmol/L and 5 μmol/L. In kind it is cell-based, mouse. How it is done: as §2, §3, §5
For experiment [10], the system named is aortic cells of the apoaequorin-expressing mice. Briefly: Intracellular calcium ion increase (aequorin luminescence), aorta. In kind it is cell-based, mouse. How it is done: as §2, §3, §5
Experiment [11] has as its system adrenal glands of apoaequorin-expressing mice. The following applies: final concentration of 1 μmol/L; reported in WO02/010371; cited from earlier work.
The test system of experiment [12] is antiserum against ESPGPERVW peptide of human VGF. In kind it is binding. The note with it: 1, 10, and 100 pmol of the peptides. How it is done:
Namely, to 100 μL of antiserum diluted 9×10^5 folds with RIA buffer, 100 μL of RIA buffer containing a fixed amount of [^125I]-labeled Peptide 1 (approximately 20000 cpm, 500-550 Bq, approximately 9 fmol in terms of peptide amount) and 100 μL of RIA buffer solutions each containing a sequentially diluted VGF-derived peptide were added, this was incubated at 4° C. for 40 hours, and the labeled Peptide 1 and VGF-derived peptide were competitively bound to the antibody in the antiserum. As controls, reactions that use RIA buffer instead of the antiserum to measure non-specific binding, and reactions that use RIA buffer instead of VGF-derived peptide solutions to measure the maximum binding level were carried out. Reactions for non-specific binding were performed in quadruplicates, and the other reactions were performed in duplicates, and for each of the reactants, the immune complex was precipitated as in the above-mentioned antibody titer measurements, and its radioactivity (cpm) was measured. The average radioactivity of non-specific binding reaction is defined as non-specific binding level N, the radioactivity value for each VGF-derived peptide addition reaction is defined as Y, and the radioactivity value of maximum binding reaction is defined as Z. The percentage ratio (B/B0) of antiserum specific binding level (B) with peptide addition to the maximum binding level (B0), was determined using the following formula.
B/B0(%)={(Y−N)/(Z−N)}×100
Accordingly, the amount of peptide that achieves 50% B/B0, more specifically, the amount of peptide that yields 50% inhibition of the maximum binding level, was used as an indicator of the peptide binding activity to the antiserum.

Experiment [13] relates to uterus of apoaequorin-expressing mice. The following applies: final concentration of 1 μmol/L; reported in WO02/010371; cited from earlier work.
Experiment [14] has as its system blood vessels of apoaequorin-expressing mice. The following applies: final concentration of 1 μmol/L; reported in WO02/010371; cited from earlier work.
For experiment [15], the system named is male rats. The following applies: direct administration to the PVN of male rats; Non-patent Document 7; cited from earlier work.
The test system of experiment [16] is rats fed with high-calorie diets. The note with it: administered into the rat ventricle, Non-patent Document 6; cited from earlier work.

Results on five substances are retold here after patent US20100075343A1, “NOVEL PEPTIDES” (priority 2007, published 2010).

Turning to “Peptide 5: amino acid sequence at position 211 to 236 in rat VGF (ASWGEFQARVPERAPLPPSVPSQFQA; synthetic Peptide 5, VGF-related peptide, rat VGF positions 211-236)”, the “luminescence (intracellular calcium ion increase) in spinal cord” value in experiment [1] is recorded as “luminescence was observed”. Moreover, in [2], the “increase of intracellular calcium concentration in kidney cells (RLU per second)” value is reported as “increase of intracellular calcium concentration” and the “luminescence (intracellular calcium ion increase) in kidney” value is “luminescence was observed”. Also, in [3], the “increase of intracellular calcium concentration in hypothalamic cells (RLU per second)” value is “increase of intracellular calcium concentration” and the “luminescence (intracellular calcium ion increase) in hypothalamus” value is reported as “luminescence was observed”. The “luminescence (intracellular calcium ion increase) in uterus” value in experiment [4] was “luminescence was observed”. Moreover, in experiment [5], the “increase of intracellular calcium concentration in cardiac cells (RLU per second)” value is “increase of intracellular calcium concentration” and the “luminescence (intracellular calcium ion increase) in heart” value is given as “luminescence was observed”. Also, in experiment [6], the “luminescence (intracellular calcium ion increase) in spleen” value is recorded as “luminescence was observed”. Moreover, the “luminescence (intracellular calcium ion increase) in medulla oblongata” value in [7] is “luminescence was observed”. Also, the “increase of intracellular calcium concentration in pituitary cells (RLU per second)” value in [8] (5 μmol/L peptide) was “increase of intracellular calcium concentration”. Further, the “luminescence (intracellular calcium ion increase) in pituitary gland” value in experiment [8] is reported as “luminescence was observed”.
Consider “Peptide 6: amino acid sequence at position 353 to 372 in rat VGF (GLQETQQERENEREEEAEQE; synthetic Peptide 6, VGF-related peptide, rat VGF positions 353-372)”, for which the “luminescence (intracellular calcium ion increase) in thymus” value in experiment [9] was “luminescence was observed”. In experiment [2], the “increase of intracellular calcium concentration in kidney cells (RLU per second)” value is “increase of intracellular calcium concentration” and the “luminescence (intracellular calcium ion increase) in kidney” value is “luminescence was observed”. Further, in experiment [3], the “increase of intracellular calcium concentration in hypothalamic cells (RLU per second)” value was “increase of intracellular calcium concentration” and the “luminescence (intracellular calcium ion increase) in hypothalamus” value is reported as “luminescence was observed”. Further, in experiment [4], the “luminescence (intracellular calcium ion increase) in uterus” value was “luminescence was observed”. Further, in experiment [5], the “luminescence (intracellular calcium ion increase) in heart” value was “luminescence was observed”. The “luminescence (intracellular calcium ion increase) in spleen” value in experiment [6] is “luminescence was observed”. The “luminescence (intracellular calcium ion increase) in medulla oblongata” value in experiment [7] is given as “luminescence was observed”. The “increase of intracellular calcium concentration in aortic cells (RLU per second)” value in [10] (1 μmol/L peptide, added at 25 seconds) is recorded as “increase of intracellular calcium concentration”. Moreover, in experiment [10] (peptide at final concentrations of 1 μmol/L and 5 μmol/L), the “luminescence (intracellular calcium ion increase) in aorta” value is “luminescence was observed”. Besides, the “increase of intracellular calcium concentration in pituitary cells (RLU per second)” value in [8] (5 μmol/L peptide) is recorded as “increase of intracellular calcium concentration”. Besides, in experiment [8], the “luminescence (intracellular calcium ion increase) in pituitary gland” value was “luminescence was observed”.
As to “Peptide 8: amino acid sequence at position 423 to 430 in rat VGF (SQEEAPGH; synthetic Peptide 8, VGF-related peptide, rat VGF positions 423-430)”, in experiment [9], the “luminescence (intracellular calcium ion increase) in thymus” value is on record as “luminescence was observed”. The “luminescence (intracellular calcium ion increase) in spinal cord” value in [1] is recorded as “luminescence was observed”. Further, in [5], the “increase of intracellular calcium concentration in cardiac cells (RLU per second)” value is on record as “increase of intracellular calcium concentration” and the “luminescence (intracellular calcium ion increase) in heart” value is on record as “luminescence was observed”. Besides, in [6], the “luminescence (intracellular calcium ion increase) in spleen” value is “luminescence was observed”. In addition, the “luminescence (intracellular calcium ion increase) in medulla oblongata” value in experiment [7] is listed as “luminescence was observed”. The “increase of intracellular calcium concentration in pituitary cells (RLU per second)” value in experiment [8] (1 μmol/L peptide) was “increase of intracellular calcium concentration”. Also, in [8], the “luminescence (intracellular calcium ion increase) in pituitary gland” value is “luminescence was observed”.
For the substance “angiotensin II (DRVYIHPF) [non-VGF peptide]”, the “luminescence in adrenal glands” value in experiment [11] is reported as “strong luminescence was observed”. In addition, the “inhibition of binding of the antiserum to labeled peptide” value in [12] is on record as “none of these peptides showed inhibition”. Also, in experiment [13], the luminescence in uterus entry is “strong luminescence was observed”. Moreover, the “luminescence in blood vessels” value in experiment [14] is “strong luminescence was observed”.
As for “rat VGF (556-576): known peptide, positions 556-576 of the rat VGF amino acid sequence”, in [15], the erection inducing activity result is reported as “this activity was not observed”. Moreover, the “suppression of weight gain” value in experiment [16] is listed as “activity of suppressing weight gain”.
